Source: US11419856B2, “Pharmaceutical combinations for use in the treatment of neoplastic diseases” (Basilea Pharmaceutica International AG, priority 2017, dated 2022)

How the values were obtained:
[1] = test system: MDA-MB-231 xenograft (human triple negative breast cancer); assay: Antitumor efficacy and induction of cures in the MDA-MB-231 xenograft model (Examples 1A, 1B); type: in vivo, mouse
Method: (§1) Female athymic nude mice (Crl:NU(NCr)-Foxnlnu, Charles River) were used when ten weeks old with a body weight (BW) range of 19.7-27.1 g on Day 1 of the study. The animals were fed ad libitum water (reverse osmosis, 1 ppm Cl) and NIH 31 Modified and Irradiated Lab Diet® consisting of 18.0% crude protein, 5.0% crude fat, and 5.0% crude fiber. The mice were housed on irradiated Enrich-o'Cobs™ Laboratory Animal Bedding in static micro-isolators on a 12-hour light cycle at 20-22° C. (68-72° F.) and 40-60% humidity. Charles River Discovery Services North Carolina (CR Discovery Services) specifically complies with the recommendations of the Guide for Care and Use of Laboratory Animals with respect to restraint, husbandry, surgical procedures, feed and fluid regulation, and veterinary care. The animal care and use program at CR Discovery Services is accredited by the Association for Assessment and Accreditation of Laboratory Animal Care International (AAALAC), which assures compliance with accepted standards for the care and use of laboratory animals. These considerations were taken into account in the way that the dosage regimes were designed and implemented.
The human MDA-MB-231 breast adenocarcinoma cells were grown to mid-log phase in RPMI-1640 medium containing 10% fetal bovine serum, 2 mM glutamine, 100 units/mL sodium penicillin G, 25 μg/mL gentamicin, and 100 μg/mL streptomycin sulfate. The tumor cells were cultured in tissue culture flasks in a humidified incubator at 37° C./5% CO2 and 95% air, harvested during exponential growth and resuspended in cold Phosphate-buffered saline (PBS). Each test animal received a subcutaneous (s.c.) injection of 5×10^6 MDA-MB-231 cells (0.1 mL cell suspension) into the right flank, and tumor growth was monitored as the average tumor size approached the target range of 100-150 mm^3. Tumors were measured (mm) in two dimensions using calipers, and volume was calculated using the formula: Tumor Volume (TV) (mm^3)=(width^2×length)/2. Eighteen days after tumor cell implantation, on Day 1 of the study, mice with individual tumor volumes ranging from 75 to 172 mm^3 were randomized into groups of 8-10 animals, with group mean tumor volumes of 114-124 mm^3.
BAL0101553 was dissolved in 0.9% NaCl in water buffered to pH 5 with 1% sodium acetate to yield 2, 2.5 and 3 mg/mL dosing solutions, providing 20, 25 and 30 mg/kg dosages, respectively, in 10 mL/kg dosing volumes. Eribulin (purchased from Eisai Co., Lot. No. 6217, 6288, 6289 and 6309) at 0.5 mg/mL concentration was diluted in saline to yield a 0.01, 0.025 and 0.05 mg/mL dosing solutions, providing 0.1, 0.25 and 0.5 mg/kg dosages, respectively, in a dosing volume of 10 mL/kg.
(§2) Groups of mice (n=8-10) bearing MDA-MB-231 tumors were dosed as outlined in the Tables 1 and 3. All doses were adjusted to 10 mL/kg. The control groups received oral doses of vehicle (pH 5 buffered 0.9% NaCl solution). Eribulin was administered i.v. and BAL101553 orally. When eribulin and BAL0101553 were dosed in combination, Eribulin was administered to all groups first followed by BAL0101553 dosing within 30 minutes of the first regimen.
Body weights were recorded daily for days 1-5 and then twice weekly until the end of the study and tumor volumes were recorded twice weekly until the end of the experiment. These parameters were analyzed and graphically represented by using GraphPad-Prism™ 5 for Windows according to standard procedure. […] Tumor free animals at the end of the study time were assessed for residual MDA-MB-231 tumor cells by pathological methods. Skin and subcutaneous tissue including the tumor cell inoculation site from the flank region were resected, preserved in formalin and embedded in paraffin.

[2] = Tolerability in the MDA-MB-231 xenograft model (body weight, mortalities); conditions: for Final body-weight / Body-weight change: mean ± SD
Method: as §1, with “The” for “Female athymic nude mice (Crl:NU(NCr)-Foxnlnu, Charles River) were used when ten weeks old with a body weight (BW) range of 19.7-27.1 g on Day 1 of the study. The animals were fed ad libitum water (reverse osmosis, 1 ppm Cl) and NIH 31 Modified and Irradiated Lab Diet® consisting of 18.0% crude protein, 5.0% crude fat, and 5.0% crude fiber. The”
as §2, with “All” for “Groups of mice (n=8-10) bearing MDA-MB-231 tumors were dosed as outlined in the Tables 1 and 3. All”
Body weights were recorded daily for days 1-5 and then twice weekly until the end of the study and tumor volumes were recorded twice weekly until the end of the experiment. These parameters were analyzed and graphically represented by using GraphPad-Prism™ 5 for Windows according to standard procedure. […] Skin and subcutaneous tissue including the tumor cell inoculation site from the flank region were resected, preserved in formalin and embedded in paraffin. Sections of approximately 5 μm were mounted on glass slides and stained with hematoxylin/eosin and were evaluated by a trained pathologist, to identify residual tumor cells at the site of injection, and were being reported as positive for the existence of residual tumor cells or as negative for a complete lack of any evidence of residual tumor cells.

[3] = Day 26, Eribulin i.v. 0.1 mg/kg q2d D1-D21, 0.1 mg/kg q2d D25-D43
[4] = Day 26, Eribulin i.v. 0.25 mg/kg q2d D1-D21, 0.25 mg/kg q2d D25-D43
[5] = Day 26, Eribulin i.v. 0.5 mg/kg q2d D1-D21, 0.5 mg/kg q2d D25-D43
[6] = Day 100 (endpoint), Eribulin i.v. 0.1 mg/kg q2d D1-D21, 0.1 mg/kg q2d D25-D43
[7] = Day 100 (endpoint), Eribulin i.v. 0.25 mg/kg q2d D1-D21, 0.25 mg/kg q2d D25-D43
[8] = Day 100 (endpoint), Eribulin i.v. 0.5 mg/kg q2d D1-D21, 0.5 mg/kg q2d D25-D43
[9] = E1A, Day 25, i.v. 0-1 mg/kg q2d D1-D9, 0.1 mg/kg q2d D12-D34
[10] = E1A, Day 25, i.v. 0.5 mg/kg q2d D1-D9, 0.5 mg/kg q2d D12-D34
[11] = E1A, Day 85 (endpoint), i.v. 0-1 mg/kg q2d D1-D9, 0.1 mg/kg q2d D12-D34
[12] = E1A, Day 85 (endpoint), i.v. 0.5 mg/kg q2d D1-D9, 0.5 mg/kg q2d D12-D34
[13] = E1A, Day 25, i.v. 0.1 mg/kg q2d D1-D9, 0.1 mg/kg q2d D12-D34
[14] = E1B, Day 26, i.v. 0.1 mg/kg q2d D1-D21, 0.1 mg/kg q2d D25-D43
[15] = E1B, Day 26, i.v. 0.25 mg/kg q2d D1-D21, 0.25 mg/kg q2d D25-D43
[16] = E1B, Day 26, i.v. 0.5 mg/kg q2d D1-D21, 0.5 mg/kg q2d D25-D43

## C=C1C[C@@H]2CC[C@@]34C[C@H]5O[C@H]6[C@@H](O3)[C@H]3O[C@H](CC[C@@H]3O[C@H]6[C@H]5O4)CC(=O)C[C@@H]3[C@@H](OC)[C@@H](C[C@H](O)CN)O[C@H]3C[C@H]3O[C@@H](CC[C@@H]1O2)C[C@@H](C)C3=C.CS(=O)(=O)O [Eribulin, (2R, 3R, 3aS, 7R, 8aS, 9S, 10aR, 11S, 12R, 13aR, 13bS, 15S, 18S, 21S, 24S, 26R, 28R, 29aS)-2-[(2S)-3-Amino-2-hydroxypropyl]-3-methoxy-26-methyl-20,27-dimethylidenehexacosahydro-11,15:18,21:24,28-triepoxy-7,9-ethano-12,15-methano-9H,15H-furo[3,2-i]furo[2′,3′:5,6]pyrano[4,3-b][1,4]dioxacyclopentacosin-5(4H)-one methanesulfonate (salt)]
[1]; [3]
  # of regressed tumors (total): 2 (10)
  T/C: 0.12
[1]; [4]
  # of regressed tumors (total): 8 (10)
  T/C: −0.05
[1]; [5]
  # of regressed tumors (total): 10 (10)
  T/C: −0.09
[1]; [6]
  # of confirmed cures (total): 0 (10)
  # of tumors with TV ≤ 4 mm^3 (total): 0 (10)
  % cures: 0%
[1]; [7]
  # of confirmed cures (total): 1 (9)
  # of tumors with TV ≤ 4 mm^3 (total): 1 (10)
  % cures: 11%
[1]; [8]
  # of confirmed cures (total): 6 (10)
  # of tumors with TV ≤ 4 mm^3 (total): 2 (10)
  % cures: 60%
[1]; [9]
  # of regressed tumors (total): 1 (8)
  T/C: 0.13
[1]; [10]
  # of regressed tumors (total): 8 (8)
  T/C: −0.09
[1]; [11]
  # of confirmed cures (total): 0 (8)
  # of tumors with TV ≤ 4 mm^3 (total): 0 (8)
  % cures: 0%
[1]; [12]
  # of confirmed cures (total): 1 (8)
  # of tumors with TV ≤ 4 mm^3 (total): 3 (8)
  % cures: 12.5%
[2]; [13]
  T/C (TC-BW, body weight): 1.00
  Final body-weight: 25.8 ± 3.0 g
[2]; [10]
  T/C (TC-BW, body weight): 0.96
  Final body-weight: 24.4 ± 1.9 g
[2]; E1A, day-0 until day-25, i.v. 0.1 mg/kg q2d D1-D9, 0.1 mg/kg q2d D12-D34
  Body-weight change: 2.1 ± 1.0 g
[2]; E1A, i.v. 0.1 mg/kg q2d D1-D9, 0.1 mg/kg q2d D12-D34
  Mortalities: 0/8
[2]; E1A, i.v. 0.5 mg/kg q2d D1-D9, 0.5 mg/kg q2d D12-D34
  Mortalities: 0/8
[2]; [14]
  T/C (TC-BW, body weight): 1.09
  Final body-weight: 27.9 ± 2.7 g
[2]; [15]
  T/C (TC-BW, body weight): 1.02
  Final body-weight: 26.6 ± 1.7 g
[2]; [16]
  T/C (TC-BW, body weight): 1.03
  Final body-weight: 25.5 ± 1.5 g
[2]; E1B, day-0 until day-26, i.v. 0.1 mg/kg q2d D1-D21, 0.1 mg/kg q2d D25-D43
  Body-weight change: 3.9 ± 1.1 g
[2]; E1B, day-0 until day-26, i.v. 0.25 mg/kg q2d D1-D21, 0.25 mg/kg q2d D25-D43
  Body-weight change: 2.3 ± 1.0 g
[2]; E1B, day-0 until day-26, i.v. 0.5 mg/kg q2d D1-D21, 0.5 mg/kg q2d D25-D43
  Body-weight change: 2.3 ± 0.9 g
[2]; E1B, i.v. 0.1 mg/kg q2d D1-D21, 0.1 mg/kg q2d D25-D43
  Mortalities: 0/10
[2]; E1B, i.v. 0.25 mg/kg q2d D1-D21, 0.25 mg/kg q2d D25-D43, a non-treatment related death footnoted
  Mortalities: 0/10^+
[2]; E1B, i.v. 0.5 mg/kg q2d D1-D21, 0.5 mg/kg q2d D25-D43
  Mortalities: 0/10
